Assay results reported in patent US9944645B2, “Imidazotriazines and imidazopyrimidines as kinase inhibitors” (Incyte Holdings Corporation, priority 2006, dated 2018).
pIC50: −log10 of the molar value.

molecular target: c-Met kinase (h-Met; histidine-tagged c-Met catalytic domain fusion protein) (Homo sapiens (Human), UniProt P08581); assay: In Vitro c-Met Kinase Enzyme Assays; type: biochemical; settings: phosphorylation of poly Glu-Tyr, 5 μM ATP, 25 minutes at 30° C.
Experimental: Compounds were screened in vitro for their ability to inhibit c-Met kinase activity. […] Briefly, histidine-tagged c-Met catalytic domain fusion protein (Invitrogen, #PV3143) was used for the assay. […] The reaction lasted for 25 minutes at 30° C. After the reaction was completed, the contents of the plates was discarded. Plates were then washed with TBS-T (250 μL/well, 5×) and then blocked with TBS-T containing 1% BSA for 2 hours. The contents of the plates was discarded, and 100 μL (per well) of peroxidase-labeled anti-phospho-tyrosine antibody (Sigma, #A5964) diluted (1:60,000) in 1% BSA containing TBS-T were then added and incubated for 1 hour. Plates were washed with TBS-T ([…], 5×) and followed by the color reaction using 100 μL (1:1 mixture) of H2O2 and tetramethylbenzidine (R&D Systems, #DY999). The reaction was stopped in minutes with 100 μL of 2 N H2SO4. The optical density was measured immediately using a microplate reader at 450 nm with wavelength correction at 540 nm. IC50 values were calculated with the GraphPad Prism software. The linear range (i.e., the time period over which the rate remained equivalent to the initial rate) was determined for the kinase and IC50 determinations were performed within this range.

c-Met kinase (h-Met; histidine-tagged c-Met catalytic domain fusion protein), sequence (P08581 1078-1345): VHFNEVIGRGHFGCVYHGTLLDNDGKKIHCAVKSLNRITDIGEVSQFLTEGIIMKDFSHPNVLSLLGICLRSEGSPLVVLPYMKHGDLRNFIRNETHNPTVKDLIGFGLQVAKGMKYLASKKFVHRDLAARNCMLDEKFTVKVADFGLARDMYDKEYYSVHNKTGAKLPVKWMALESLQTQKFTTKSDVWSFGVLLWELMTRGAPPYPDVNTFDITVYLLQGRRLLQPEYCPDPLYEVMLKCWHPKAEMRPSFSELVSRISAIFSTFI

Row | pIC50 | SMILES
1 | > 6.30 | COC1CCN(C(=O)C(C)NC(=O)c2ccc(-c3cnc4ncc(C5(c6ccc7ncccc7c6)CC5)n4c3)cc2F)C1 (single isomer, unassigned) [Example 201]
2 | > 6.30 | N#CC1CCN(C(=O)c2ccc(-c3cnc4ncc(C5(c6ccc7ncccc7c6)CC5)n4c3)cc2)C1 (stereo in doubt) [Example 52, (3R)-1-{4-[3-(1-Quinolin-6-ylcyclopropyl)imidazo[1,2-a]pyrimidin-6-yl]benzoyl}pyrrolidine-3-carbonitrile]
3 | > 6.30 | COc1ccc(Cc2cnc3ncc(-c4ccc(F)cc4)nn23)cc1 [Example 1]
4 | > 6.30 | COc1ccc(C2(c3cnc4ncc(-c5ccc(F)cc5)nn34)CC2)cc1 [Example 2, 2-(4-Fluorophenyl)-7-[1-(4-methoxyphenyl)cyclopropyl]imidazo[1,2-b]-[1,2,4]-triazine]
5 | > 6.30 | Fc1ccc(-c2cnc3ncc(C4(c5ccc6ncccc6c5)CC4)n3n2)cc1 [Example 3, 6-(1-(2-(4-Fluorophenyl)imidazo[1,2-b][1,2,4]-triazin-7-yl)cyclopropyl)quinoline]
6 | > 6.30 | COc1ccc(Cc2cnc3ncc(-c4ccc(F)cc4)cn23)cc1 [Example 4, 6-(4-Fluorophenyl)-3-(4-methoxybenzyl)imidazo[1,2-a]pyrimidine]
7 | > 6.30 | COc1ccc(C2(c3cnc4ncc(-c5ccc(F)cc5)cn34)CC2)cc1 [Example 5, 6-(4-Fluorophenyl)-3-(1-(4-methoxyphenyl)cyclopropyl)imidazo[1,2-a]pyrimidine]
8 | > 6.30 | Fc1ccc(-c2cnc3ncc(C4(c5ccc6ncccc6c5)CC4)n3c2)cc1 [Example 6, 6-(1-(6-(4-Fluorophenyl)imidazo[1,2-a]pyrimidin-3-yl)cyclopropyl)quinoline]
9 | > 6.30 | COc1ccc(Sc2cnc3ncc(-c4ccc(Br)c(F)c4)nn23)cc1 [Example 8, 2-(4-Bromo-3-fluorophenyl)-7-[(4-methoxyphenyl)thio]imidazo[1,2-b][1,2,4]triazine]
10 | > 6.30 | CNC(=O)c1ccc(-c2cnc3ncc(Sc4ccc(OC)cc4)n3c2)cc1F [Example 9, 2-Fluoro-4-(3-[(4-methoxyphenyl)thio]imidazo[1,2-a]pyrimidin-6-yl)-N-methylbenzamide]
11 | > 6.30 | CNC(=O)c1ccc(-c2cnc3ncc(Sc4ccc(OC)cc4)n3c2)cc1Cl [Example 10, 2-chloro-4-3-[(4-methoxyphenyl)thio]imidazo[1,2-a]pyrimidin-6-yl-N-methylbenzamide]
12 | > 6.30 | CNC(=O)c1ccc(-c2cnc3ncc(Sc4ccc5ncccc5c4)n3c2)cc1F [Example 11, 2-Fluoro-N-methyl-4-[3-(quinolin-6-ylthio)imidazo[1,2-a]pyrimidin-6-yl]benzamide]
13 | > 6.30 | CNC(=O)c1ccc(-c2cnc3ncc(Sc4ccc5ncccc5c4)n3c2)cc1Cl [Example 12, 2-chloro-N-methyl-4-[3-(quinolin-6-ylthio)imidazo[1,2-a]pyrimidin-6-yl]benzamide]
14 | > 6.30 | COC(=O)c1ccc(-c2cnc3ncc(Sc4ccc5ncccc5c4)n3n2)cc1F [Example 13, Methyl 2-fluoro-4-[7-(quinolin-6-ylthio)imidazo[1,2-b][1,2,3]triazin-2-yl]benzoate]
15 | > 6.30 | COc1ccc(Oc2cnc3ncc(-c4ccc(Br)c(F)c4)nn23)cc1 [Example 14, 2-(4-Bromo-3-fluorophenyl)-7-(4-methoxyphenoxy)imidazo[1,2-b][1,2,4]triazine]
16 | > 6.30 | COc1ccc(Oc2cnc3ncc(-n4cc(C)cn4)cn23)cc1 [Example 15, 3-(4-Methoxyphenoxy)-6-(4-methyl-1H-pyrazol-1-yl)imidazo[1,2-a]pyrimidine]
17 | > 5.52 | COc1ccc(Oc2cnc3ncc(-c4ccc(Br)cc4)cn23)cc1 [Example 16, 6-(4-Bromophenyl)-3-(4-methoxyphenoxy)imidazo[1,2-a]pyrimidine]
18 | > 6.30 | CNC(=O)c1ccc(-c2cnc3ncc(Oc4ccc5ncccc5c4)n3c2)cc1Cl [Example 17, 2-chloro-N-methyl-4-[3-(quinolin-6-yloxy)imidazo[1,2-a]pyrimidin-6-yl]benzamide]
